Test results taken from US20130123271A1, “HETEROCYCLIC COMPOUNDS, THEIR PREPARATION AND THERAPEUTIC APPLICATION” (FOVEA PHARMACEUTICALS, priority 2010, published 2013).

Biological target: h Src (Homo sapiens, UniProt P12931)
Experiment: LC3000 Src assay (off-chip incubation mobility-shift kinase assay, Caliper LabChip)
Assay type: biochemical
Settings: ATP at KM apparent
Procedure: The screening and profiling experiments described here were performed using Caliper Life Sciences' proprietary LabChip™ technology. Caliper LC3000 and EZ Reader II instruments are widely used throughout the drug discovery process for assay development, primary screening, selectivity screening, generation of Structure-Activity Relationships (SARs) and Mechanism of Action (MOA) studies. The LabChip™ technology is particularly well suited for enzymatic ‘targets’ such as kinases, proteases, phosphatases, histone deacetylases (HDAC), phosphodiesterases (PDE), and acyl-transferases. The key benefit of the technology is the separation and direct measurement of substrates and products, which allows for higher signal-to-noise ratios and fewer false positive/negative results. This direct measurement also allows for the identification and elimination of enzymatic activities that are not associated with the kinase reaction of interest.
The off-chip incubation mobility-shift kinase assay uses a microfluidic chip to measure the conversion of a fluorescent peptide substrate to a phosphorylated product. The reaction mixture, from a microtiter plate well, is introduced through a capillary sipper onto the chip, where the nonphosphorylated substrate and phosphorylated product are separated by electrophoresis and detected via laser-induced fluorescence. […] The phosphorylated product migrates through the chip faster than the non-phosphorylated substrate, and signals from the two forms of the peptide appear as distinct peaks. Caliper's data analysis software (HTSWA) determines peak heights, from which the ratio of product to the peak sum P/(P+S) and percent (%) conversion is calculated. This value is used to compare compound wells to control wells present on the plate, and thereby determine the % inhibition values for the compound. The formula used to calculate % inhibition is as follows, where C100% is the average % conversion of the 100% activity wells and C0% is the average % conversion of the 0% activity wells:
(1-(%conversionofsample—C0%)/(C100%−C0%))*100
Compounds were dissolved in 100% DMSO and diluted to 25× the final desired screening concentration. Serial dilutions were performed to obtain the concentrations specified for particular studies. One μl of each concentration was transferred, in duplicate, to a 384-well Greiner microtiter plate. Generally, 12 μL of enzyme buffer containing purified kinase (various suppliers), 100 mM HEPES, pH 7.5, 1 mM DTT (Calbiochem, 2333153), 10 mM MgCl2 (Sigma, M-1028) or 10 mM MnCl2 (Sigma, M-1787) (assay specific), and 0.002% Brij-35 (Sigma, B4184) was added to each well. Compound and enzyme were allowed to pre-incubate for 15 minutes. 12 μL of peptide/ATP buffer containing 100 mM HEPES, pH 7.5, 1.5 μM fluorescein-labeled peptide (specific to kinase of interest), ATP (at KM apparent, Sigma, A9187), and 0.002% Brij-35 was then added to each well to initiate the reaction. Generally, reactions were incubated for 1-1.5 hours at room temperature to obtain adequate (15-40%) conversion of peptide to phosphorylated product in the linear range of the reaction. Reactions were terminated with the addition of 45 μL of Stop Buffer (containing 20 mM EDTA). Plates were then read on the LabChip 3000 using a 12-sipper LabChip. % conversion values and % inhibition values were obtained as described and IC50 curves of compounds were generated using Graphpad Prism Version 4 or 5.01. A nonlinear curve fit using the sigmoidal dose response—variable slope fit was used to graph IC50 curves and determine IC50 values and hillslopes.

Sequence of h Src (P12931 whole entry): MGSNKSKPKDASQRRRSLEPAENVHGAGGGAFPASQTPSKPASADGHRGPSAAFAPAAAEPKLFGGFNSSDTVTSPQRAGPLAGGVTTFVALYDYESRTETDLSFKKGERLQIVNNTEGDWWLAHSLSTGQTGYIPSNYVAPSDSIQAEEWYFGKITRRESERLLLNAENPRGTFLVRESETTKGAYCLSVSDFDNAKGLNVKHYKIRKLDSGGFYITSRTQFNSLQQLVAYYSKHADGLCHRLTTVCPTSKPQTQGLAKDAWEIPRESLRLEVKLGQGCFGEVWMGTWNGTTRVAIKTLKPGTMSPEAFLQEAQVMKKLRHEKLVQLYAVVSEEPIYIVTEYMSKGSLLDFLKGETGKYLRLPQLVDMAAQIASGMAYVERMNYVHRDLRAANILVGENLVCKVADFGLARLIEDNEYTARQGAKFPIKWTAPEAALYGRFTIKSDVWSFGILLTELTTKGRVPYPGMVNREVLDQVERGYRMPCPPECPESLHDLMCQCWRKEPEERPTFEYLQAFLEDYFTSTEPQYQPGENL

| SMILES | IC50 |
| --- | --- |
| Oc1ccc(Cl)c(-c2ccc3nc(Nc4ccc(OCCN5CCCC5)cn4)nn3c2)c1 [compound 8, 4-Chloro-3-{2-[5-(2-pyrrolidin-1-yl-ethoxy)-pyridin-2-ylamino]-[1,2,4]triazolo[1,5-a]pyridin-6-yl}-phenol] | 100 nM |
| COc1cc(Nc2nc3ccc(-c4cc(O)ccc4Cl)cn3n2)ccn1 [Compound 20, 4-Chloro-3-[2-(2-methoxy-pyridin-4-ylamino)-[1,2,4]triazolo[1,5-a]pyridin-6-yl]-phenol] | 6 nM |
| Oc1ccc(Cl)c(-c2ccc3nc(Nc4ccc5cc[nH]c5c4)ncc3c2)c1 [Compound 42, 4-Chloro-3-[2-(1 H-indol-6-ylamino)-quinazolin-6-yl]-phenol] | 100 nM |
| OCc1ccc(Nc2nc3ccc(-c4cc(O)ccc4Cl)cn3n2)cn1 [compound 14, 4-Chloro-3-[2-(6-hydroxymethyl-pyridin-3-ylamino)-[1,2,4]triazolo[1,5-a]pyridin-6-yl]-phenol] | 47 nM |
| COc1cc(Nc2nc3ccc(-c4cc(O)ccc4Cl)cn3n2)cc(OC)c1OC [Compound 29, 4-Chloro-3-[2-(3,4,5-trimethoxy-phenylamino)-[1,2,4]triazolo[1,5-a]pyridin-6-yl]-phenol] | 2 nM |
| Oc1ccc(Cl)c(-c2ccc3nc(Nc4cccnc4)ncc3c2)c1 [Compound 17, 4-Chloro-3-[2-(pyridin-3-ylamino)-quinazolin-6-yl]-phenol] | 2 nM |
| COc1cc(Nc2ncc3cc(-c4cc(O)ccc4Cl)ccc3n2)cc(OC)c1OC [Compound 36, 4-Chloro-3-[2-(3,4,5-trimethoxy-phenylamino)-quinazolin-6-y]-phenol] | 0.5 nM |
| OCc1ccc(Nc2nc3ccc(-c4cc(O)ccc4Cl)cn3n2)cc1CO [Compound 35, 3-[2-(3,4-Bis-hydroxymethyl-phenylamino)-[1,2,4]triazolo[1,5-a]pyridin-6-yI]-4-chloro-phenol] | 34 nM |
| O=C1CCCN1CCOc1ccc(Nc2nc3ccc(-c4cc(O)ccc4Cl)cn3n2)cn1 [Compound 44, 1-(2-{5-[6-(2-Chloro-5-hydroxy-phenyl)-[1,2,4]triazolo[1,5-a]pyridin-2-ylamino]-pyridin-2-yloxy}-ethyl)-pyrrolidin-2-one] | 57 nM |
| COc1ccc(Nc2nc3ccc(-c4cc(O)ccc4Cl)cn3n2)cn1 [compound 7, 4-Chloro-3-[2-(6-methoxy-pyridin-3-ylamino)-[1,2,4]triazolo[1,5-a]pyridin-6-yl]-phenol] | 80 nM |
| COc1ccc(Nc2ncc3cc(-c4cc(O)ccc4Cl)ccc3n2)cn1 [Compound 40, 4-Chloro-3-[2-(6-methoxy-pyridin-3-ylamino)-quinazolin-6-yl]-phenol] | 10 nM |
| Oc1ccc(Cl)c(-c2ccc3nc(Nc4ccnc(OCCN5CCCC5)c4)nn3c2)c1 [Compound 33, 4-Chloro-3-{2-[2-(2-pyrrolidin-1-yl-ethoxy)-pyridin-4-ylamino]-[1,2,4]triazolo[1,5-a]pyridin-6-yl}-phenol] | 29 nM |
| COc1cc2nc(Nc3ccc(OCCN4CCCC4)cc3)nn2cc1-c1cc(O)ccc1Cl [Compound 39, 4-Chloro-3-{7-methoxy-2-[4-(2-pyrrolidin-1-yl-ethoxy)-phenylamino]-[1,2,4]triazolo[1,5-a]pyridin-6-yl}-phenol] | 69 nM |
| Oc1ccc(Cl)c(-c2ccc3nc(Nc4ccnc(O)c4)nn3c2)c1 [Compound 19, 4-[6-(2-Chloro-5-hydroxy-phenyl)-[1,2,4]triazolo[1,5-a]pyridin-2-ylamino]-pyridin-2-ol] | 28 nM |
| OCc1cncc(Nc2nc3ccc(-c4cc(O)ccc4Cl)cn3n2)c1 [compound 4, 4-Chloro-3-[2-(5-hydroxymethyl-pyridin-3-ylamino)-[1,2,4]triazolo[1,5-a]pyridin-6-yl]-phenol] | 39 nM |
| OCCN1CCN(c2cc(CO)cc(Nc3ncc4cc(-c5cc(O)ccc5Cl)ccc4n3)c2)CC1 [Compound 50, 4-Chloro-3-(2-{3-[4-(2-hydroxy-ethyl)-piperazin-1-yl]-5-hydroxymethyl-phenylamino}-quinazolin-6-yl)-phenol] | 0.2 nM |
| OCCn1cnc2ccc(Nc3nc4ccc(-c5cc(O)ccc5Cl)cn4n3)cc21 [Compound 30, 4-Chloro-3-{2-[3-(2-hydroxy-ethyl)-3H-benzoimidazol-5-ylamino]-[1,2,4]triazolo[1,5-a]pyridin-6-yl}-phenol] | 7 nM |
| Oc1ccc(Cl)c(-c2ccc3nc(Nc4cncnc4)nn3c2)c1 [compound 3, 4-Chloro-3-[2-(pyrimidin-5-ylamino)-[1,2,4]triazolo[1,5-a]pyridin-6-yl]-phenol] | 150 nM |
| OCCN1CCN(c2cc(CO)cc(Nc3nc4ccc(-c5cc(O)ccc5Cl)cn4n3)c2)CC1 [Compound 47, 4-Chloro-3-(2-{3-[4-(2-hydroxy-ethyl)-piperazin-1-yl]-5-hydroxymethyl-phenylamino}-[1,2,4]triazolo[1,5-a]pyridin-6-yl)-phenol] | 1 nM |
| OCCN1CCN(c2cc(Nc3nc4ccc(-c5cc(O)ccc5Cl)cn4n3)ccn2)CC1 [Compound 38, 4-Chloro-3-(2-{2-[4-(2-hydroxy-ethyl)-piperazin-1-yl]-pyridin-4-ylamino}-[1,2,4]triazolo[1,5-a]pyridin-6-yl)-phenol] | 13 nM |
| [O-][N+]1(CCOc2ccc(Nc3nc4ccc(-c5cc(O)ccc5Cl)cn4n3)cc2)CCCC1 [Compound 41, 4-Chloro-3-(2-{4-[2-(1-oxy-pyrrolidin-1-yl)-ethoxy]-phenylamino}-[1,2,4]triazolo[1,5-a]pyridin-6-yl)-phenol] | 55 nM |
| OCc1cc(CO)cc(Nc2nc3cc(-c4cc(O)ccc4Cl)ccn3n2)c1 [Compound 34, 3-[2-(3,5-Bis-hydroxymethyl-phenylamino)-[1,2,4]triazolo[1,5-a]pyridin-7-yl]-4-chloro-phenol] | 9 nM |
| Oc1ccc(Cl)c(-c2ccc3nc(Nc4ccncc4)nn3c2)c1 [compound 1, 4-Chloro-3-[2-(pyridin-4-ylamino)-[1,2,4]triazolo[1,5-a]pyridin-6-yl]-phenol] | 73 nM |
| Oc1ccc(Cl)c(-c2ccc3nc(Nc4ccc5cc[nH]c5c4)nn3c2)c1 [Compound 18, 4-Chloro-3-[2-(1H-indol-6-ylamino)-[1,2,4]triazolo[1,5-a]pyridin-6-yl]-phenol] | 39 nM |
| OCc1cncc(Nc2ncc3cc(-c4cc(O)ccc4Cl)ccc3n2)c1 [Compound 21, 4-Chloro-3-[2-(5-hydroxymethyl-pyridin-3-ylamino)-quinazolin-6-yl]-phenol] | 0.4 nM |
| Cc1cc(Nc2ncc3cc(-c4cc(OC(=O)c5ccccc5)ccc4Cl)ccc3n2)cc(N2CCN(CCO)CC2)c1 [Compound 49, Benzoic acid 4-chloro-3-(2-{3-[4-(2-hydroxy-ethyl)-piperazin-1-yl]-5-methyl-phenylamino}-quinazolin-6-yl)-phenyl ester] | 11 nM |
| Oc1ccc(Cl)c(-c2ccc3nc(Nc4cccnc4)nn3c2)c1 [compound 2, 4-Chloro-3-[2-(pyridin-3-ylamino)-[1,2,4]triazolo[1,5-a]pyridin-6-yl]-phenol] | 120 nM |
| Oc1ccc(Cl)c(-c2ccc3nc(Nc4cncc(OCCN5CCCC5)c4)nn3c2)c1 [Compound 26, 4-Chloro-3-{2-[5-(2-pyrrolidin-1-yl-ethoxy)-pyridin-3-ylamino]-[1,2,4]triazolo[1,5-a]pyridin-6-yl}-phenol] | 14 nM |
| Oc1ccc(Cl)c(-c2ccn3nc(Nc4cccnc4)nc3c2)c1 [Compound 31, 4-Chloro-3-[2-(pyridin-3-ylamino)-[1,2,4]triazolo[1,5-a]pyridin-7-yl]-phenol] | 69 nM |
| Oc1ccc(Cl)c(-c2ccc3nc(Nc4ccccn4)nn3c2)c1 [compound 12, 4-Chloro-3-[2-(pyridin-2-ylamino)-[1,2,4]triazolo[1,5-a]pyridin-6-yl]-phenol] | 170 nM |
